Experimental findings from patent publication US7979117B2, “Device and method for controlled delivery of active substance into the skin” (Power Paper Ltd., priority 2001, dated 2011) are described below.

“And” between values parts separate entries of the source, which are not always exact repeats. Equal entries are not always repeated.

This data set can be described thus: Dual chamber in-vitro skin penetration test (iontophoresis vs passive). The class given is in vitro ADME, Porcine. The text has this: One type of skin penetration test can be implemented in-vitro by using excised swine skin membrane with two electrodes placed thereon, with one of the two being associated with a formulation including an active substance to be delivered by iontophoresis, as described, for example in: P. Glikfeld, C. Cullander, R. S. Hinz, and R. H. Guy, A new system for in vitro studies of iontophoresis, Pharm. Res. 5: 443-446 (1988) (hereinafter, the “dual chamber in-vitro test”). Description of the experimental design of an in-vitro skin penetration test is provided in Example No. 1. In a non-limiting way, any of the following parameters can be varied and tested with this model: voltage, current and current density, concentration of an active substance, pH, viscosity, concentration of a buffer, concentration of an electrolyte, concentration of a polymeric substance which is used to render certain rheological properties, conductivity, viscosity and adhesiveness. The influence of pore size and density of a substrate can also be assessed in a modified in-vitro skin penetration test. Delivery of the active substance into and through the skin will be determined as a function of the time of current passage.
Example No. 1 was devised to define, in a preclinical study, the optimal iontophoretic parameters for the delivery of an active substance contained in a cosmetic carrier into the skin, while minimizing systemic exposure.
In general, the active agent is formulated in a buffered, conducting solution, gel, cream, or any other optional cosmetically acceptable carrier. Competing ions are kept to a minimum. Iontophoresis is performed in vertical diffusion cells, in which the skin membrane separates the physically- and electrically-isolated anode and cathode chambers from the receptor phase, or in modified side-by-side cells of a newer design. The anode and receptor compartments contain physiologically-buffered saline at pH 7, while the cathode compartment is charged with the gel containing the active.
The skin membrane is from the porcine ear (Alternatively, human (cadaver) or nude mouse skin can be used). The skin is excised with a dermatome set to an approximate depth of 500 μm. The area of skin exposed in each electrode compartment is 0.64 cm^2.
The electrodes transmitting the electrical current are made of Ag/AgCl or graphite, prepared in a customary fashion. A constant current is passed between the electrodes and controlled by a custom-built power supply (Professional Design and Development Services, Berkeley, Calif.).
In each study, preparation, with electrical current (“Iontophoretic System”) and without electrical current (“Control”), are tested. Exposure period is 20-30 minutes. Six replicates are performed per experiment. Prior to each experiment, the viability and integrity of skin barrier function is checked via a measurement of transepidermal water loss (TEWL).
At the end of the exposure period, the entire receptor compartment is drained and the solution reserved for subsequent analysis of the active agent(s) (“Active”). The skin is removed, and the surfaces carefully cleaned and dried. Subsequently, the stratum corneum (“SC”) beneath the cathode chamber is removed by repeated 15 adhesive tape strippings (“TS”). The Active is extracted from the respective tapes and assayed to yield a total uptake of the compound into the SC. The remaining SC-stripped skin from beneath the cathode is then appropriately treated so as to recover the Active, which had crossed the SC barrier, during iontophoresis, and reached into the underlying epidermis/upper dermis. The Active is determined quantitatively using customary analytical procedures (e.g., HPLC, UV spectrum, GC, radiolabeled detection, etc.), as applicable.
Results of an In-Vitro Skin Penetration Test for Magnesium Ascorbyl Phosphate (MAP) Aqueous Solution, Using the “Dual Chamber In-Vitro Test”
Active Substance: Magnesium Ascorbyl Phosphate (MAP) (Vitamin C Derivative) […]

Setting [1] is: Iontophoretic System, 3% in distilled water, 25 mg applied, pH 7.0-7.4, 0.150 mA/cm^2, 30 minutes, individual cell.
Setting [2] is: Iontophoretic System, 3%, 0.150 mA/cm^2, 30 minutes, Mean of 6 cells.
The mark [3] stands for this setting: Passive Control (without electrical current).

In the case of `O=C1O[C@H]([C@@H](O)CO)C([O-])=C1OP(=O)([O-])[O-].O=C1O[C@H]([C@@H](O)CO)C([O-])=C1OP(=O)([O-])[O-].[Mg+2].[Mg+2].[Mg+2]` [MAP, Magnesium Ascorbyl Phosphate], under setting [1], the “Amount of Active, Receptor” value was 47.66 µg and 122.75 µg and 14.62 µg and 23.47 µg and 24.99 µg and 25.43 µg; the “Amount of Active, TS # 1, 2” value was 92.41 µg and 50.37 µg and 103.88 µg and 132.28 µg and 48.43 µg and 89.89 µg; the “Amount of Active, TS # 3-15” value was 89.22 µg and 2.94 µg and 115.27 µg and 43.90 µg and 8.71 µg and 50.43 µg; the “Amount of Active, TS Total” value is 181.63 µg and 53.31 µg and 219.15 µg and 176.18 µg and 57.14 µg and 140.32 µg. Further, under setting [1], the “Amount of Active, Viable Skin” value is 33.94 µg and 4.55 µg and 56.67 µg and 8.44 µg and 19.24 µg and 10.30 µg; the “Total TS # 3-15 + Viable Skin” value was 123.16 µg and 7.49 µg and 171.94 µg and 52.34 µg and 27.95 µg and 60.73 µg; the “Total TS # 3-15 + Viable skin” value is 183.82 μg/cm2 and 11.18 μg/cm2 and 256.63 μg/cm2 and 78.12 μg/cm2 and 41.72 μg/cm2 and 10.89 μg/cm2. Further, under setting [2], the “Amount of Active, Receptor (transferred through the skin)” value was 43 µg and 43.15 µg; the “Amount of Active, TS # 1, 2” value amounted to 73.77 µg; the “Amount of Active, TS # 3-15” value was found to be 42.06 µg; the “Amount of Active, TS Total” value came to 115.82 µg. Moreover, under setting [2], the “Amount of Active, Viable Skin” value was 23 µg and 23.07 µg; the “Total TS # 3-15 + Viable Skin (amount in the skin)” value is 65 µg and 65.13 µg; the “Total TS # 3-15 + Viable skin” value worked out at 97.21 μg/cm2. Moreover, the “total amount found in the skin (TS#1-15+ Viable skin)” value (Iontophoretic System, 3%, 0.150 mA/cm^2, 30 minutes, mean) turned out to be 139 µg. Also, under setting [3], the “mean amount found in the receptor” value was 2 µg; the “mean amount found in the viable skin” value stood at 1 µg; the “mean total amount found in tape strippings #1-15, compared with Iontophoretic System” value is reported as “in the same order of magnitude”.
